Patent US20210023034A1, “PHENYLALANINE DERIVATIVES FOR USE IN THE TREATMENT OF CANCERS” (UNIVERSITE PARIS EST CRETEIL VAL DE MARNE, priority 2018, published 2021)

Experiments:
[1] = target: T1, Recombinant human IL4I1 (Homo sapiens, UniProt Q96RQ9); assay: Evaluation of Ki, fluorometric IL4I1 assay; type: biochemical; conditions: for Ki: average of three experiments; for IL4I1 Inhibitor: recombinant human IL4I1, 30 min pre-incubation
T1 construct: purchased R&D Systems, Inc
T1 sequence (Q96RQ9 22-567): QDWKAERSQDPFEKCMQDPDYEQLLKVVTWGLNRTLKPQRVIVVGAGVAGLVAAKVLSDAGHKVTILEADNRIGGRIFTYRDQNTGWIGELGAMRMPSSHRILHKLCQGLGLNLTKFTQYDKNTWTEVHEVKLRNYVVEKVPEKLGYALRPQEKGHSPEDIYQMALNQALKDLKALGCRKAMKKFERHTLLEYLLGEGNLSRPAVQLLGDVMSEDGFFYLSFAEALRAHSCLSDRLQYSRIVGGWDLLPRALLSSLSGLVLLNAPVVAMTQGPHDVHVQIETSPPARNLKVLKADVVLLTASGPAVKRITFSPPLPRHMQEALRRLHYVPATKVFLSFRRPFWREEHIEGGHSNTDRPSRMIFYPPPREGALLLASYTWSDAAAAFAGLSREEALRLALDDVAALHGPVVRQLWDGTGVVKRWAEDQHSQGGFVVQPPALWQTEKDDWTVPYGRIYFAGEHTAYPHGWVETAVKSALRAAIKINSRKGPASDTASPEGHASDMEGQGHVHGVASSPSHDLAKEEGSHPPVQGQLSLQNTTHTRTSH
Experimental: Evaluation of Ki. Recombinant human IL4I1 (from R&D Systems, Inc) was diluted in PBS at 100 µg/mL and pre-incubated for 30 min with decreasing amounts of each inhibitor dissolved in DMSO (50, 25, and 2.5 μM) or DMSO as a control. The activity was tested in the presence of various amounts of substrate ([…] phenylalanine) using the fluorometric IL4I1 assay described by Carbonnelle-Puscian et al. (Leukemia, 2009, volume 23, pages 952-960 (2009). Ki were calculated using Graph Pad Prism.
Recombinant human IL4I1 was diluted in PBS at 100 µg/mL and pre-incubated for 30 min with decreasing amounts of each inhibitor dissolved in DMSO (50, 25, or 2.5 μM) or DMSO alone, as a control, and IL4I1 measured. […] Compound 13 inhibits IL4l1 activity with an almost 10-fold higher Ki.

[2] = test system: Jurkat cells; assay: Jurkat cell counts (Trypan blue); type: cell-based; conditions: for Jurkat cell proliferation measured by cell counting: Trypan blue counts at days 1, 2, 3 and 6
Experimental: (§1) Cell counts. Jurkat cells were seeded at 0.1×10^6/mL in a 24-well plate and an aliquot mixed with Trypan blue and counted at days 1, 2, 3, and 6 using disposable Fast-read 10 chambers. Evaluation of metabolic proliferation. Jurkat cells were seeded at 0.1×10^6/mL in a 96-well plate and incubated at 37° C. in 5% CO2 for various times. At each time point, cells were centrifuged, the medium removed, and CellTiter 96® Non-Radioactive Cell Proliferation Assay reagent (Promega) added and the cells incubated an additional 4 h before measuring the optical density at 570 nm in a plate reader (BMG Labtech Fluostar Optima).
(§2) (A) Jurkat cells were seeded at 0.1×10^6/mL in a 24-well plate and an aliquot mixed with Trypan blue and counted at days 1, 2, 3, and 6. Data are the average±SD of three independent experiments. (B) Jurkat cells were seeded at 0.1×10^6/mL in a 96-well plate and incubated at 37° C. in 5% CO2 for the times indicated in FIG. 2. At each time point, cells were centrifuged, the medium removed, and the CellTiter 96® Non-Radioactive Cell Proliferation Assay (Promega) performed. Data are reported as the percentage of proliferation relative to that of the control samples (treated with DMSO) and are the average±SD of three independent experiments. *** p<0,001, **** p<0,0001 Two-way ANOVA test.

[3] = test system: Jurkat cells; assay: Metabolic proliferation (CellTiter 96 Non-Radioactive Cell Proliferation Assay); type: cell-based; conditions: CellTiter 96, relative to DMSO control
Experimental: as §1, §2

[4] = test system: Jurkat cells; assay: Evaluation of apoptosis, activated caspase-3 staining, Jurkat cells; type: cell-based; conditions: 100 μM, 24 h
Experimental: (§3) Evaluation of Apoptosis. Cells were seeded at 0.5×10^6/mL in 24-well plates, with or without the compounds at 100 μM or 10 μM etoposide (VP16) as a positive control, and incubated at 37° C. for 24 h. Cells were then fixed and permeabilized using cytox/cytoperm solution (BD Bioscience) followed by the addition of anti-activated caspase 3-AlexaFluor 647 (Rabbit anti-active Caspase 3 clone C92-605, BD Pharmingen). Caspase-3 positive cells were evaluated using a Cyan ADP LX7 (Beckman Coulter) and analyzed using Flowjo.
(§4) (A) Activated caspase-3 staining of Jurkat cells and (B) PBMC. Cells at 0.5×10^6/mL were seeded in 24-well plates with or without the compounds at 100 μM or 10 μM etoposide (VP16), as a positive control, and incubated at 37° C. for 24 h. Twenty-four hours after treatment, apoptotic Caspase-3 positive cells were evaluated by FACS. Data are expressed as the percentage of Caspase-3 positive cells±SD from three independent experiments.

[5] = test system: PBMC; assay: Evaluation of apoptosis, activated caspase-3 staining, PBMC; type: cell-based, human; conditions: 100 μM, 24 h
Experimental: as §3, §4

[6] = test system: PBMCs; assay: Cell proliferation of CPD eFluor670-labeled, anti-CD3 stimulated PBMCs (FACS); type: cell-based, human; conditions: for division index / proliferation index: PBMCs, relative to cells treated with DMSO; for proliferation of PBMCs: anti-CD3 stimulated, days 3 and 6, relative to DMSO
Experimental: (§5) Evaluation of cell proliferation. Jurkat cells and PBMCs were labeled with 2 μM Cell Proliferation Dye (CPD) eFluor670 for 10 min at 37° C. DMSO or the compounds were added to labeled PBMCs or Jurkat cells before putting them in culture at 0.2×10^6/well. Jurkat cells were cultured under standard conditions, whereas PBMCs were cultured in 96 U-shaped wells pre-coated with a 0.5 μg/mL solution of anti-CD3 (clone OKT3) functional quality antibody (eBioscience). Cells were collected at day 0, 3, and 6 for fluorescence analysis using a Cyan ADP LX7 (Beckman Coulter). Data were analyzed using Flowjo.
Cell proliferation dye fluor670-labeled PBMCs were stimulated to proliferate in 96-well anti-CD3 coated plates and analyzed at days 3 and 6 by FACS gating on the lymphocytes population. (A) A typical FACS analysis at day 3 is shown. (B) The division (left panel) and proliferation indices (right panel) were calculated using FlowJo. Data are representative of three independent experiments.

[7] = test system: Jurkat cells; assay: Cell proliferation of CPD eFluor670-labeled Jurkat cells (FACS); type: cell-based; conditions: data not shown
Experimental: as §5

[8] = compounds disclosed in WO2010/06685

| SMILES | Ki [1, 8] [µM] | Ki [1] [µM] | IL4I1 Inhibitor [1] | Jurkat cell proliferation measured by cell counting [2] | Jurkat cell proliferation measured by metabolic labeling [3] | apoptosis of Jurkat cells (Caspase-3 positive cells) [4] | apoptosis of PBMCs (Caspase-3 positive cells) [5] | division index [6] | proliferation index [6] | proliferation of PBMCs [6] | proliferation of Jurkat cells [7] | fold higher Ki ([1]; Ki compared with the other tested compounds) [fold] | toxicity to Jurkat cells ([2]; six days of culture) |
| --- | --- | --- | --- | --- | --- | --- | --- | --- | --- | --- | --- | --- | --- |
| NC(Cc1ccccn1)C(=O)O (stereo not shown) [2′-aza-phenylalanine, reference compound] | 2800 |  |  |  |  |  |  |  |  |  |  |  |  |
| CCCNC(Cc1ccccc1)C(=O)OCC (stereo not shown) [Cp 2] |  | 21.3 | Yes | do not affect cell proliferation | do not affect cell proliferation | do not induce significant apoptosis | do not induce significant apoptosis | do not vary markedly | do not vary markedly | not substantially modified | not substantially modified |  |  |
| CCOC(=O)C(Cc1c(Cl)cccc1Cl)N1CCCCC1 (stereo not shown) [Cp 7] |  | 9.8 | Yes | strongly inhibits proliferation | strongly inhibits proliferation | induced | induced |  |  |  |  |  |  |
| CCOC(=O)C(Cc1ccccc1)N(CC)CC (stereo not shown) [Cp 13] |  | 102 | Yes | do not affect cell proliferation | do not affect cell proliferation | do not induce significant apoptosis | do not induce significant apoptosis | do not vary markedly | do not vary markedly | not substantially modified | not substantially modified | ~10 |  |
| CCOC(=O)C(Cc1ccccc1)Nc1ccccc1 (stereo not shown) [Cp 15] |  | 26.9 | Yes | no cells remained after six days of culture |  |  |  |  |  |  |  |  | toxic |
| CCOC(=O)C(Cc1ccccc1)Nc1ccccc1C(O)C(=O)OCC (stereo not shown) [Cp 16] |  | 25 | Yes |  |  | does not induce apoptosis |  |  |  |  |  |  |  |
| CCOC(=O)[C@@H](N)Cc1ccccc1 [L-phenylalanine ethyl ester, reference compound] | 3100 |  |  |  |  |  |  |  |  |  |  |  |  |
| CC(=O)N[C@@H](Cc1ccccc1)C(=O)O [N-acetyl-phenylalanine, reference compound] | 2100 |  |  |  |  |  |  |  |  |  |  |  |  |
